The values below come from patent publication US20120142646A1, “Novel Compounds 621” (priority 2006, published 2012).

Structures can show the parent of a compound that is named as a salt.

The assay deals with T1, Adrenergic β2 (Homo sapiens, UniProt P07550).
T1 construct: Adherent H292 cells were removed from tissue culture flasks; endogenous in cells; host or cells: H292 cells
Nature of the assay: Adrenergic β2 mediated cAMP production in H292 cells (AlphaScreen cAMP detection). To be noted: Intrinsic Activity as a fraction relative to the maximum activity determined for formoterol. Also noted: key to β2 Int Act: fraction of formoterol maximum activity (formoterol = 1). It is filed as cell-based. On the procedure:
Adrenergic β2 Mediated cAMP Production
H292 cells were grown in 225 cm2 flasks incubator at 37° C., 5% CO2 in RPMI medium containing, 10% (v/v) FBS (foetal bovine serum) and 2 mM L-glutamine.
Adherent H292 cells were removed from tissue culture flasks by treatment with Accutase™ cell detachment solution for 15 minutes. Flasks were incubated for 15 minutes in a humidified incubator at 37° C., 5% CO2. Detached cells were re-suspended in RPMI media (containing 10% (v/v) FBS and 2 mM L-glutamine) at 1×10^6 cells per mL. 10000 cells in 100 μL were added to each well of a tissue-culture-treated 96-well plate and the cells incubated overnight in a humidified incubator at 37° C., 5% CO2. The culture media was removed and cells were washed twice with 100 μL assay buffer and replaced with 50 μL assay buffer (HBSS solution containing 10 mM HEPES pH7.4 and 5 mM glucose). Cells were rested at room temperature for 20 minutes after which time 25 μL of rolipram (1.2 mM made up in assay buffer containing 2.4% (v/v) dimethylsulphoxide) was added. Cells were incubated with rolipram for 10 minutes after which time test compounds were added and the cells were incubated for 60 minutes at room temperature. The final rolipram concentration in the assay was 300 μM and final vehicle concentration was 1.6% (v/v) dimethylsulphoxide. The reaction was stopped by removing supernatants, washing once with 100 μL assay buffer and replacing with 50 μL lysis buffer. The cell monolayer was frozen at −80° C. for 30 minutes (or overnight).
AlphaScreen™ cAMP Detection
The concentration of cAMP (cyclic adenosine monophosphate) in the cell lysate was determined using AlphaScreen™ methodology. The frozen cell plate was thawed for 20 minutes on a plate shaker then 10 μL of the cell lysate was transferred to a 96-well white plate. 40 μL of mixed AlphaScreen™ detection beads pre-incubated with biotinylated cAMP, was added to each well and the plate incubated at room temperature for 10 hours in the dark. The AlphaScreen™ signal was measured using an EnVision spectrophotometer (Perkin-Elmer Inc.) with the recommended manufacturer's settings. cAMP concentrations were determined by reference to a calibration curve determined in the same experiment using standard cAMP concentrations. Concentration response curves for agonists were constructed and data was fitted to a four parameter logistic equation to determine both the pEC50 and Intrinsic Activity. Intrinsic Activity was expressed as a fraction relative to the maximum activity determined for formoterol in each experiment.

T1 sequence (P07550 whole entry): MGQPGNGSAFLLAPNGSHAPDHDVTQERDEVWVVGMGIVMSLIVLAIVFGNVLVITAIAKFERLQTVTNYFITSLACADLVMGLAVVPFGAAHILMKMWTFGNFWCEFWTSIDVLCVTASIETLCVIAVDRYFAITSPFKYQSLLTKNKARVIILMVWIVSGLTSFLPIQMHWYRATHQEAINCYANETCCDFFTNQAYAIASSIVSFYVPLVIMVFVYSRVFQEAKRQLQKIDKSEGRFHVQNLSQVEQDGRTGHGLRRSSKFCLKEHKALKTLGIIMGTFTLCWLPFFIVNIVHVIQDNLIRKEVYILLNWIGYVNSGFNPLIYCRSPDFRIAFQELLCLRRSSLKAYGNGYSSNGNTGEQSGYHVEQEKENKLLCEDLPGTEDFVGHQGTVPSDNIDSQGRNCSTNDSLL

With `O=C1COc2c(CCNCCN(C(=O)CCNCCc3cc(F)ccc3F)C3CCCCCC3)ccc(O)c2N1` [Example 64, N-Cycloheptyl-3-(2,5-difluorophenethylamino)-N-(2-(2-(5-hydroxy-3-oxo-3,4-dihydro-2H-benzo[b][1,4]oxazin-8-yl)ethylamino)ethyl)propanamide bis(trifluoroacetate)], the “β2 Int Act” value is 0.88.
Consider `O=C(CCNCCc1cccc(F)c1)N(CCNCCc1ccc(O)c2[nH]c(=O)ccc12)C1CCCCC1` [Example 19, N-Cyclohexyl-3-(3-fluorophenethylamino)-N-(2-(2-(8-hydroxy-2-oxo-1,2-dihydroquinolin-5-yl)ethylamino)ethyl)propanamide], for which the “β2 Int Act” value was found to be 0.87.
Regarding `O=C1COc2c(CCNCCN(C(=O)CCNCCc3cc(F)cc(F)c3)C3CCCCC3)ccc(O)c2N1` [Example 35, N-Cyclohexyl-3-(3,5-difluorophenethylamino)-N-(2-(2-(5-hydroxy-3-oxo-3,4-dihydro-2H-benzo[b][1,4]oxazin-8-yl)ethylamino)ethyl)propanamide bis(trifluoroacetate)], the “β2 Int Act” value worked out at 0.87.
Consider `CCCC[C@@H](C)N(CCNCCc1ccc(O)c2c1OCC(=O)N2)C(=O)CCNCCc1ccc(Cl)cc1` [Example 45, (R)-3-(4-Chlorophenethylamino)-N-(hexan-2-yl)-N-(2-(2-(5-hydroxy-3-oxo-3,4-dihydro-2H-benzo[b][1,4]oxazin-8-yl)ethylamino)ethyl)propanamide bis(trifluoroacetate)], for which the “β2 Int Act” value is 0.89.
`O=C1COc2c(CCNCCN(C(=O)CCOCCc3cccc(F)c3)C3CCCCC3)ccc(O)c2N1` [Example 74, N-Cyclohexyl-3-(3-fluorophenethoxy)-N-(2-(2-(5-hydroxy-3-oxo-3,4-dihydro-2H-benzo[b][1,4]oxazin-8-yl)ethylamino)ethyl)propanamide trifluoroacetate]: the “β2 Int Act” value is 0.97.
Regarding `CCCC[C@@H](C)N(CCNCCc1ccc(O)c2c1OCC(=O)N2)C(=O)CCNCCc1ccc(Cl)c(Cl)c1` [Example 55, (R)-3-(3,4-Dichlorophenethylamino)-N-(hexan-2-yl)-N-(2-(2-(5-hydroxy-3-oxo-3,4-dihydro-2H-benzo[b][1,4]oxazin-8-yl)ethylamino)ethyl)propanamide bis(trifluoroacetate)], the “β2 Int Act” value is recorded as 0.92.
Next, `O=C(CCNCCc1ccc(Cl)cc1)N(CCNCCc1ccc(O)c2[nH]c(=O)ccc12)C1CCCCCC1` [Example 4, 3-(4-Chlorophenethylamino)-N-cycloheptyl-N-(2-(2-(8-hydroxy-2-oxo-1,2-dihydroquinolin-5-yl)ethylamino)ethyl)propanamide bis(trifluoroacetate)]: 0.79; `O=C1COc2c(CCNCCN(C(=O)CCNCCc3cc(F)ccc3F)C3CCCCC3)ccc(O)c2N1` [Example 38, N-Cyclohexyl-3-(2,5-difluorophenethylamino)-N-(2-(2-(5-hydroxy-3-oxo-3,4-dihydro-2H-benzo[b][1,4]oxazin-8-yl)ethylamino)ethyl)propanamide bis(trifluoroacetate)]: 0.98.
To `O=C1COc2c(CCNCCN(C(=O)CCNCCc3ccc(F)c(F)c3)C3CCCCC3)ccc(O)c2N1` [Example 42, N-Cyclohexyl-3-(3,4-difluorophenethylamino)-N-(2-(2-(5-hydroxy-3-oxo-3,4-dihydro-2H-benzo[b][1,4]oxazin-8-yl)ethylamino)ethyl)propanamide bis(trifluoroacetate)] belongs 0.9.
To `C[C@H](CNCCC(=O)N(CCNCCc1ccc(O)c2[nH]c(=O)ccc12)C1CCCCCC1)c1ccccc1` [Example 9, (S)—N-Cycloheptyl-N-(2-(2-(8-hydroxy-2-oxo-1,2-dihydroquinolin-5-yl)ethylamino)ethyl)-3-(2-phenylpropylamino)propanamide bis(trifluoroacetate)] belongs 0.91; to `CC[C@@H](C)N(CCNCCc1ccc(O)c2[nH]c(=O)ccc12)C(=O)CCOCCc1ccccc1.Cl` [Example 79, (R)—N-sec-Butyl-N-(2-(2-(8-hydroxy-2-oxo-1,2-dihydroquinolin-5-yl)ethylamino)ethyl)-3-phenethoxypropanamide hydrochloride], 0.92.
With `O=C1COc2c(CCNCCN(C(=O)CCOCCc3cccc(Cl)c3)C3CCCCC3)ccc(O)c2N1` [Example 77, 3-(3-Chlorophenethoxy)-N-cyclohexyl-N-(2-(2-(5-hydroxy-3-oxo-3,4-dihydro-2H-benzo[b][1,4]oxazin-8-yl)ethylamino)ethyl)propanamide trifluoroacetate], the “β2 Int Act” value turned out to be 0.97.
Turning to `O=C1COc2c(CCNCCN(C(=O)CCNCCc3ccccc3)C3CCCCC3)ccc(O)c2N1` [Example 23, N-Cyclohexyl-N-(2-(2-(5-hydroxy-3-oxo-3,4-dihydro-2H-benzo[b][1,4]oxazin-8-yl)ethylamino)ethyl)-3-(phenethylamino)propanamide bis(trifluoroacetate)], the “β2 Int Act” value worked out at 0.79.
`O=C(CCNCCc1cccc(Cl)c1)N(CCNCCc1ccc(O)c2[nH]c(=O)ccc12)C1CCCCC1` [Example 13, 3-(3-Chlorophenethylamino)-N-cyclohexyl-N-(2-(2-(8-hydroxy-2-oxo-1,2-dihydroquinolin-5-yl)ethylamino)ethyl)propanamide bis(trifluoroacetate)]: the “β2 Int Act” value came out at 0.86.
`O=C1COc2c(CCNCCN(C(=O)CCNCCc3cccc(Cl)c3)C3CCCCCC3)ccc(O)c2N1` [Example 68, 3-(3-Chlorophenethylamino)-N-cycloheptyl-N-(2-(2-(5-hydroxy-3-oxo-3,4-dihydro-2H-benzo[b][1,4]oxazin-8-yl)ethylamino)ethyl)propanamide bis(trifluoroacetate)]: the “β2 Int Act” value was determined as 0.93.
Consider `O=C1COc2c(CCNCCN(C(=O)CCNCCc3cccc(F)c3)C3CCCCCC3)ccc(O)c2N1` [Example 69, N-Cycloheptyl-3-(3-fluorophenethylamino)-N-(2-(2-(5-hydroxy-3-oxo-3,4-dihydro-2H-benzo[b][1,4]oxazin-8-yl)ethylamino)ethyl)propanamide bis(trifluoroacetate)], for which the “β2 Int Act” value worked out at 0.88.
Consider `Cc1cc(CCNCCC(=O)N(CCNCCc2ccc(O)c3c2OCC(=O)N3)C2CCCCC2)ccc1F` [Example 40, N-Cyclohexyl-3-(4-fluoro-3-methylphenethylamino)-N-(2-(2-(5-hydroxy-3-oxo-3,4-dihydro-2H-benzo[b][1,4]oxazin-8-yl)ethylamino)ethyl)propanamide bis(trifluoroacetate)], for which the “β2 Int Act” value was 0.96.
Take `CCOc1cccc(CCNCCC(=O)N(CCNCCc2ccc(O)c3[nH]c(=O)ccc23)C2CCCCCC2)c1` [Example 11, N-Cycloheptyl-3-(3-ethoxyphenethylamino)-N-(2-(2-(8-hydroxy-2-oxo-1,2-dihydroquinolin-5-yl)ethylamino)ethyl)propanamide bis(trifluoroacetate)]: the “β2 Int Act” value is given as 0.65.
Next, `O=C1COc2c(CCNCCN(C(=O)CCOCCc3ccccc3)C3CCCCC3)ccc(O)c2N1` [Example 70, N-Cyclohexyl-N-(2-(2-(5-hydroxy-3-oxo-3,4-dihydro-2H-benzo[b][1,4]oxazin-8-yl)ethylamino)ethyl)-3-phenethoxypropanamide trifluoroacetate]: 0.97.
In the case of `CCCC[C@@H](C)N(CCNCCc1ccc(O)c2c1OCC(=O)N2)C(=O)CCNCCc1ccccc1` [Example 25, (R)—N-(Hexan-2-yl)-N-(2-(2-(5-hydroxy-3-oxo-3,4-dihydro-2H-benzo[b][1,4]oxazin-8-yl)ethylamino)ethyl)-3-(phenethylamino)propanamide bis(trifluoroacetate)], the “β2 Int Act” value worked out at 0.9.
As for `Cc1cc(CCNCCC(=O)N(CCNCCc2ccc(O)c3c2OCC(=O)N3)C2CCCCCC2)ccc1F` [Example 62, N-Cycloheptyl-3-(4-fluoro-3-methylphenethylamino)-N-(2-(2-(5-hydroxy-3-oxo-3,4-dihydro-2H-benzo[b][1,4]oxazin-8-yl)ethylamino)ethyl)propanamide bis(trifluoroacetate)], the “β2 Int Act” value was 0.86.
Turning to `O=C(CCOCCc1ccccc1)N(CCNCCc1ccc(O)c2[nH]c(=O)ccc12)C1CCCCC1` [Example 2, N-Cyclohexyl-N-(2-(2-(8-hydroxy-2-oxo-1,2-dihydroquinolin-5-yl)ethylamino)ethyl)-3-phenethoxypropanamide], the “β2 Int Act” value amounted to 0.93.
